The conditions of series [1]: cited from earlier work.
Series [2] relates to Saccharomyces cerevisiae strain 62 expressing PAD1. It counts as cell-based. Particulars: predicted decarboxylation product in headspace; weak acid 0.5 mM, YEPD pH 4, 10 h at 28° C.; 0 = no decarboxylation. How it is done:
S. cerevisiae strain 62 (which expresses the PAD1 gene) was cultured for 48 hr in YEPD pH 4, Yeast extract 10 g, Peptone 20 g, Glucose 20 g, at 28° C. in a shake flask, 120 rpm. The stationary-phase cells were inoculated into capped 28 ml McCartney bottles containing 10 mls YEPD pH 4, at 1 million cells per ml. Each bottle also contained one of 70 substrate weak acids at 0.5 mM. Tubes were then shaken for 10 h at 28° C.
1 ml samples of the headspace were passed into stainless-steel thermal desorption tubes, followed by a 10 ml air flush. (Desorption tubes—89 mm×5 mm ID, packed with 200 mg Tenax TA 60-80 mesh, Phase Separations, UK).
Thermal desorption tubes were placed in a Perkin Elmer ATD400 thermal desorption system, and the volatiles transferred to the Gas Chromatograph in a 2 stage process. Primary desorption was 250° C. for 10 min with a helium flow of […]. Using a split ratio of 1:1, volatiles were retained on a cold trap (25 mg Tenax TA) held at −30° C. Secondary desorption was carried out by rapidly heating and holding the cold trap at 250° C. for 2 min, with a helium flow of 20 ml/min and split ratio of 19:1. A DB624 column {30 m×0.32 mm, 1.8 microns film thickness} installed in a Carbo Erba GC800 was used to achieve separation and introduction of the volatile to the mass spectrometer. The column temperature was held at 40° C. for 2 min then increased at 5° C./min to 250° C. The column outlet was coupled via a heated transfer line at 250° C. into the ion source of the mass spectrometer operated at 70 eV in electron ionization (EI) mode. The source temperature was at 200° C. and the detector photomultiplier at 500V. Full scan MS data acquisition was carried out from m/z 30 to 300, with 0.6 sec scan and 0.05 sec inter scan delay.
The results are shown in Table 3, in each case the “predicted product” being the product which would be produced if decarboxylation of the weak acid were to take place.

For series [3], the system named is S. cerevisiae BY4741 (PAD1) and S. cerevisiae YO5833 (Δ pad1). Nature of the series: Selection of PAD1-gene containing yeast in broth culture by weak acid. Particulars: buffered YEPD pH 4.0, 14 days at 25° C., growth by OD 600 nm. It counts as cell-based, Saccharomyces cerevisiae. How it is done: Flasks were cultured at 25° C. for 14 days, shaken at 120 rpm on an orbital shaker (25 mm orbit). After 14 days, yeast growth was measured by spectrophotometer at 600 nm (Optical Density, OD 600 nm).
Yeast strains S. cerevisiae BY4741 (PAD1) and S. cerevisiae YO5833—Euroscarf (Δ pad1) were separately inoculated at 10^3 cells/ml into 100 ml conical flasks containing 50 mls buffered YEPD pH 4.0 (glycerol 20 g/l, Bacteriological peptone 20 g/l, yeast extract 10 g/l, succinic acid 3 g/l, adjusted to pH 4.0 with potassium hydroxide) each containing higher concentrations of 4-Methylcinnamic acid, 0-0.11 mM. Flasks were cultured for 14 days at 25° C., shaken at 160 rpm on an orbital shaker (25 mm orbit). After 14 days, yeast growth was measured by spectrophotometer at 600 nm (Optical Density, OD 600 nm).

Series [4] concerns S. cerevisiae BY4741 (PAD1). As to the kind of experiment: Selection in agar, growth of PAD1-containing yeast. It counts as cell-based, Saccharomyces cerevisiae. Particulars: 4-Methylcinnamic acid 0.096 mM in agar, pH 4.0, 10 days at 25° C. Here is the method:
(§1) Buffered YEPD containing 4-Methylcinnamic acid, was prepared as follows: glycerol 20 g/l, Bacteriological peptone 20 g/l, yeast extract […], agar 15 g/l, succinic acid 3 g/l, 4-Methylcinnamic acid 15.55 mg/l (0.096 mM). Agar was sterilised by autoclaving at pH 6.0, cooled to 50° C., adjusted to pH 4.0, then poured into Petri dishes and allowed to set. Agar plates were spread with dilute cultures of S. cerevisiae BY4741 (PAD1) (upper half of plate—FIG. 8), and dilute cultures of S. cerevisiae YO5833—Euroscarf (Δ pad1) on the lower half of the plate.

Series [5] concerns S. cerevisiae YO5833 (Δ pad1). Nature of the series: Selection in agar, growth of Δ pad1 yeast. It counts as cell-based, Saccharomyces cerevisiae. Particulars: 4-Methylcinnamic acid 0.096 mM in agar, pH 4.0, 10 days at 25° C. How it is done:
as §1

Series [6] has as its system decarboxylase from mould spores. Conditions: 1 mM sorbic acid, equimolar 1,3-pentadiene in headspace within 18 hours; cited from earlier work.
Setting [7] is: Table 1, monocarboxylic weak acids.
The mark [8] stands for this setting: Table 2, most preferred weak acids.

Read-outs that look alike come from different tables or passages of the source.

Turning to `C=CC=CC(=O)O` [2,4-Pentadienoic acid], the Pka in series [1] (setting [7]) and in series [1] (setting [8]) was 4.72 each time. For the same compound, the “GCMS Peak area” value in series [2] is listed as 107.

As for `CCCCCCCC=CC(=O)O` [2-Decenoic acid], in series [1] (setting [7]), the Pka is 3.9018. Also, the “GCMS Peak area” value in series [2] is 0.

Turning to `O=C(O)C=Cc1ccccc1O` [2-Hydroxy-cinnamic acid], in series [1] (setting [7]), the Pka was 4.7. Also, the “GCMS Peak area” value in series [2] was 0.

For `CCCCCCC=CC(=O)O` [2-Nonenoic acid], the Pka in series [1] (setting [7]) was 3.9148. Moreover, the “GCMS Peak area” value in series [2] was 0.

In the case of `O=C(O)C=Cc1cccs1` [3-(2-Thienyl)acrylic acid], the Pka in series [1] (setting [7]) and in series [1] (setting [8]) was 4.2 each time. Moreover, the “GCMS Peak area” value in series [2] is listed as 20571.

For `O=C(O)C=Cc1ccsc1` [3-(3-Thienyl)acrylic acid], the Pka in series [1] (setting [7]) and in series [1] (setting [8]) was 4.1 in each case. For the same compound, the “GCMS Peak area” value in series [2] is 1586.

Regarding `O=C(O)C=Cc1ccoc1` [3-Furan-acrylic acid], the Pka in series [1] (setting [7]) and in series [1] (setting [8]) was 3.9 in each case. Moreover, in series [2], the “GCMS Peak area” value is 2165.

Regarding `O=C(O)C=Cc1cccc(O)c1` [3-Hydroxy-cinnamic acid], the Pka in series [1] (setting [7]) is on record as 4.6. Also, the “GCMS Peak area” value in series [2] was 0.

With `O=C(O)C=Cc1ccc(F)cc1` [4-Fluoro-cinnamic acid], the “GCMS Peak area” value in series [2] is reported as 18699. The “concentration range showing good selection for PAD1-containing yeasts” value in series [3] lay within 0.15 to 0.225 mM.

`COc1ccc(C=CC(=O)O)cc1` [4-Methoxy-cinnamic acid]: the “GCMS Peak area” value in series [2] is reported as 1899.

For the compound `Cc1ccc(C=CC(=O)O)cc1` [4-Methyl-cinnamic acid], in series [4], the “growth of PAD1-containing yeast cells on agar” value is recorded as “formed large colonies”. In addition, in series [5], the “growth of Δ pad1 yeast on agar” value is given as “barely perceptible”. Also, the “GCMS Peak area” value in series [2] is 11013. Also, in series [3], the “concentration range showing good selection for PAD1-containing yeasts” value lay within 0.075 to 0.11 mM.

Consider `O=C(O)C=Cc1ccc([N+](=O)[O-])cc1` [4-Nitro-cinnamic acid], for which the “GCMS Peak area” value in series [2] was 0.

In the case of `O=C(O)C=Cc1ccc(C(F)(F)F)cc1` [4-Trifluoromethyl-cinnamic acid], the “GCMS Peak area” value in series [2] is reported as 1600.

For `C=CCCCC(=O)O` [5-Hexenoic acid], the Pka in series [1] (setting [7]) is on record as 4.81. Besides, the “GCMS Peak area” value in series [2] is 0.

Regarding `O=C(O)c1ccccc1` [Benzoic acid], the “GCMS Peak area” value in series [2] is recorded as 0.

Take `O=C(O)/C=C/c1ccc(O)c(O)c1` [Caffeic acid]: the Pka in series [1] (setting [7]) is 4.7. Besides, in series [2], the “GCMS Peak area” value was 0.

Take `O=CC=Cc1ccccc1` [Cinnamaldehyde]: the “GCMS Peak area” value in series [2] is recorded as 0.

As to `O=C(O)C=Cc1ccccc1` [Cinnamic acid], the “GCMS Peak area” value in series [2] is on record as 17538.

For `OCC=Cc1ccccc1` [Cinnamyl alcohol], in series [2], the “GCMS Peak area” value is on record as 0.

With `O=C(O)/C=C/c1ccc(O)cc1` [Coumaric acid], the “GCMS Peak area” value in series [2] is given as 0.

Regarding `C/C=C/C(=O)O` [Crotonic acid], the Pka in series [1] (setting [7]) is given as 4.17. Besides, the “GCMS Peak area” value in series [2] is 0.

Take `COc1cc(/C=C/C(=O)O)ccc1O` [Ferulic acid]: in series [1] (setting [7]), the Pka was 4.58. Further, in series [2], the “GCMS Peak area” value was 0.

With `O=C(O)C=Cc1ccco1` [Furylacrylic acid], the “GCMS Peak area” value in series [2] was 15611.

`CC(C)=CCC/C(C)=C/C(=O)O` [Geranic acid]: in series [1] (setting [7]), the Pka is given as 4.7211. Further, in series [2], the “GCMS Peak area” value is 0.

In the case of `CCCCCCC(=O)O` [Heptanoic acid], the Pka in series [1] (setting [7]) was 4.8. In addition, the “GCMS Peak area” value in series [2] is on record as 0.

Take `CCCCCC(=O)O` [Hexanoic acid]: in series [2], the “GCMS Peak area” value is 0.

Regarding `O=C(O)CCc1ccccc1` [Hydrocinnamic acid], in series [2], the “GCMS Peak area” value is on record as 0.

As to `O=C(O)C=Cc1c[nH]c2ccccc12` [Indole-acrylic acid], the “GCMS Peak area” value in series [2] is 0.

`O=C(O)C#Cc1ccccc1` [Phenyl-propiolic acid]: the “GCMS Peak area” value in series [2] is 0.

Take `C/C=C/C=C/C(=O)O` [Sorbic acid]: the “removal of weak acid by decarboxylase” value in series [6] is given as “completely removed”. The “GCMS Peak area” value in series [2] was 8795.

On to `O=C(O)/C=C/c1c[nH]cn1` [Urocanic acid], for which the “GCMS Peak area” value in series [2] is on record as 0.

Regarding `CCCCC(=O)O` [Valeric acid], the “GCMS Peak area” value in series [2] is on record as 0.

With `O=C(O)C(F)=Cc1ccccc1` [alpha-fluoro-cinnamic acid], the Pka in series [1] (setting [7]) and in series [1] (setting [8]) was 4.45 throughout. Moreover, the “GCMS Peak area” value in series [2] was 2659.

For `CC(=Cc1ccccc1)C(=O)O` [alpha-methyl-cinnamic acid], the Pka in series [1] (setting [7]) and in series [1] (setting [8]) was 4.45 each time. Further, in series [2], the “GCMS Peak area” value is listed as 889.

`O=C(O)C(=Cc1ccccc1)c1ccccc1` [alpha-phenyl-cinnamic acid]: the “GCMS Peak area” value in series [2] was 0.

Take `CC/C=C\CC(=O)O` [cis-3-Hexenoic acid]: the Pka in series [1] (setting [7]) is reported as 4.608. Also, in series [2], the “GCMS Peak area” value is reported as 0.

Take `C=CCC/C=C/C(=O)O` [trans, trans-2,6-Heptadienoic acid]: the Pka in series [1] (setting [7]) is recorded as 3.7528. The “GCMS Peak area” value in series [2] is reported as 0.

Take `O=C(O)/C=C/c1ccc(Cl)cc1Cl` [trans-2,4-Dichloro-cinnamic acid]: in series [2], the “GCMS Peak area” value is recorded as 4428.

For `CCCC/C=C/C(=O)O` [trans-2-Heptenoic acid], the Pka in series [1] (setting [7]) is 3.7839. Also, the “GCMS Peak area” value in series [2] is listed as 0.

For the compound `CCC/C=C/C(=O)O` [trans-2-Hexenoic acid], in series [1] (setting [7]), the Pka is 3.8306. Also, the “GCMS Peak area” value in series [2] is listed as 0.

As to `CCCCC/C=C/C(=O)O` [trans-2-Octenoic acid], the Pka in series [1] (setting [7]) is listed as 3.902. For the same compound, the “GCMS Peak area” value in series [2] is recorded as 0.

On to `CC/C=C/C(=O)O` [trans-2-Pentenoic acid], for which the Pka in series [1] (setting [7]) was 4.1578. Further, the “GCMS Peak area” value in series [2] is 0.

For the compound `CC/C=C/CC(=O)O` [trans-3-Hexenoic acid], in series [1] (setting [7]), the Pka was 4.608. Further, in series [2], the “GCMS Peak area” value is recorded as 0.

In the case of `C/C=C/CCC(=O)O` [trans-4-Hexenoic acid], the Pka in series [1] (setting [7]) was 4.6984. Moreover, the “GCMS Peak area” value in series [2] is given as 0.

With `O=C(O)C/C=C/c1ccccc1` [trans-Styrylacetic acid], the Pka in series [1] (setting [7]) was 4.688. In addition, the “GCMS Peak area” value in series [2] is 0.

(Values after patent publication US20090092975A1, “SELECTABLE MARKER” (Mologic Ltd, priority 2005, published 2009).)
